Experiments:
S1P5 = biological target: T1, S1P5 (Homo sapiens, UniProt Q9H228); test: [35S]GTPγS binding assay, agonist activity at S1P5; format: biochemical; conditions: for EC50: n = 3, errors in parentheses derived from 95% confidence intervals, nine concentrations 100 fM to 10 μM; for Efficacy (%): relative efficacy versus S1P against S1P5, single high concentration, single 96-well plate
T1 construct: purchased Eurofins
Method: The membrane preparation was diluted to […] with assay buffer and mixed 1 : 1 (v/v) with a 0.4 mg mL^-1 solution of saponin in assay buffer. […] MerckTM Multiscreen® HTS 96 well filter plates were pre-wet with 70% aqueous EtOH (50 μL per well) for 30 seconds and then washed twice with assay buffer (200 μL per well). […]

[1] = biological target: human serum albumin (HSA) (Homo sapiens, UniProt P02768); test: Plasma protein binding by human serum albumin (HSA) coated column; format: in vitro ADME; conditions: read-out: %PPB (percentage of plasma protein binding)
Method: The physicochemical properties of both sets of compounds was initially performed to assess their potential as brain imaging agents. The calculated partition coefficient (log P), the permeability (Pm), the membrane partition coefficient (Km) and the percentage of plasma protein binding (%PPB) were determined for each compound using established methods (see ESI, ^† Table S1).[22,23] […] The permeability and membrane partition coefficient for the majority of compounds were well within the ideal limits for these parameters (Pm < 0.5; Km < 250), which are based on known CNS imaging agents.[23]
1. Physiochemical Propert ies of 6-arylaminobenz amides 7a–7h and 8a–8e.1
Compound log Pa Pmb Kmb %PPBc
aCalcul ated using Ch emDraw. bDeterm ined using i mmobil ised art ific ial membr ane (IAM) column .
cDetermin ed using human seru m albu min (HSA) coa ted colu mn.

S1P3 = biological target: T2, S1P3 (Homo sapiens, UniProt Q99500); test: [35S]GTPγS binding assay, agonist activity at S1P3; format: biochemical; conditions: n = 3, errors in parentheses derived from 95% confidence intervals
T2 construct: purchased Eurofins
Method: (§1) A GTPγS assay was then conducted to evaluate receptor agonist activity of each compound at nine concentrations from 100 fM to 10 μM (n = 3).[24,25] Initially, all compounds were tested for agonist activity with S1P5 and relative efficacy versus S1P (Table 1).[26] […] Previous work by the Novartis group described the importance of hydrogen bonding between the carboxamide and 2-substituent, to maintain an in-plane conformation of the amide that was critical for agonist activity against S1P receptors.[16] […] This was more pronounced for compounds with both a bulky alkoxy group and a 3-substituent, with 6-arylaminobenzamide 7h found to have the weakest activity. […] Based on the binding studies and the physicochemical results, 6-arylaminobenzamide 7g, named as TEFM78 was chosen as the lead compound.
(§2) The assay buffer was prepared from HEPES (20 mM), NaCl (100 mM), MgCl2 (10 mM) and fatty acid-free BSA (0.1%) at pH 7.4. ChemiScreen™ S1P1–3,5 lysophospholipid receptor membrane preparations were obtained from Eurofins. The membrane preparation was diluted to […] with assay buffer and mixed 1 : 1 (v/v) with a 0.4 mg mL^−1 solution of saponin in assay buffer. Nine concentrations of the compounds to be tested were prepared (10 μM, 1 μM, 100 nM, 10 nM, 1 nM, 100 pM, 10 pM, 1 pM, 100 fM). Merck™ Multiscreen® HTS 96 well filter plates were pre-wet with 70% aqueous EtOH (50 μL per well) for 30 seconds and then washed twice with assay buffer (200 μL per well). To each well was added membrane preparation (25 μL), GDP in assay buffer (25 μL, 2 μM), [^35S]GTPγS in assay buffer (25 μL, 1.2 nM) and test compound (25 μL). For total binding, S1P solution in assay buffer (25 μL, 10 μM) was added and for basal, assay buffer (25 μL) was added. The assay plate was incubated at 30 °C for 0.5 h before the addition of cold assay buffer (100 μL per well) to stop the reaction. The plate was filtered using a Millipore vacuum manifold, with a pressure between 600–800 mbar and then dried at 50 °C for 1–2 h. Betaplate Scint scintillation cocktail (30 μL per well) was added and the disintegrations per minute were determined using a Wallac 1450 Microbeta Trilux liquid scintillation and luminescence counter. EC50 values were derived from non-linear regression analysis using GraphPad Prism Version 6 (GraphPad Software Inc).

S1P2 = biological target: T3, S1P2 (Homo sapiens, UniProt O95136); test: [35S]GTPγS binding assay, agonist activity at S1P2; format: biochemical; conditions: n = 3, errors in parentheses derived from 95% confidence intervals
T3 construct: purchased Eurofins
Method: as §1, §2

S1P1 = biological target: T4, S1P1 (Homo sapiens, UniProt P21453); test: [35S]GTPγS binding assay, agonist activity at S1P1; format: biochemical; conditions: n = 3, errors in parentheses derived from 95% confidence intervals
T4 construct: purchased Eurofins
Method: as §1, §2

T4 sequence (P21453 whole entry): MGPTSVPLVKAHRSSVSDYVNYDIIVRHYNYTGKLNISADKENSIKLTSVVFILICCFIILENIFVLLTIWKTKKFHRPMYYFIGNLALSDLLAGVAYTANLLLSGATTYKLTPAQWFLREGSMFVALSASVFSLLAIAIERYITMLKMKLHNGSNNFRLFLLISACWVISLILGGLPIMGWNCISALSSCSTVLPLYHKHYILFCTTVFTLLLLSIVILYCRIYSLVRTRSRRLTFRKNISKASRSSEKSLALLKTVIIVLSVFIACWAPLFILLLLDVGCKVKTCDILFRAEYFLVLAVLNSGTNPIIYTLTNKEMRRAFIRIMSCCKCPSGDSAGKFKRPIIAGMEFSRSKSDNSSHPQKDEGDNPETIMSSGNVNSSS
T2 sequence (Q99500 whole entry): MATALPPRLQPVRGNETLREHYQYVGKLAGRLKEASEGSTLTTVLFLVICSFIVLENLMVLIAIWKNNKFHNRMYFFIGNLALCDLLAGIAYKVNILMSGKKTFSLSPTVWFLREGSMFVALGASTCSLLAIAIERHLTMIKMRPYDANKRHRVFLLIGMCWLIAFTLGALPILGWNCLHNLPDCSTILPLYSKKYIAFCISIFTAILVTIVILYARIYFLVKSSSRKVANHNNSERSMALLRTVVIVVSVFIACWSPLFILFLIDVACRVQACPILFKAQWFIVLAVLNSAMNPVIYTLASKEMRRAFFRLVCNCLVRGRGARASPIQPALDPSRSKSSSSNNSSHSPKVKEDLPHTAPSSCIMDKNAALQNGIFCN
T1 sequence (Q9H228 whole entry): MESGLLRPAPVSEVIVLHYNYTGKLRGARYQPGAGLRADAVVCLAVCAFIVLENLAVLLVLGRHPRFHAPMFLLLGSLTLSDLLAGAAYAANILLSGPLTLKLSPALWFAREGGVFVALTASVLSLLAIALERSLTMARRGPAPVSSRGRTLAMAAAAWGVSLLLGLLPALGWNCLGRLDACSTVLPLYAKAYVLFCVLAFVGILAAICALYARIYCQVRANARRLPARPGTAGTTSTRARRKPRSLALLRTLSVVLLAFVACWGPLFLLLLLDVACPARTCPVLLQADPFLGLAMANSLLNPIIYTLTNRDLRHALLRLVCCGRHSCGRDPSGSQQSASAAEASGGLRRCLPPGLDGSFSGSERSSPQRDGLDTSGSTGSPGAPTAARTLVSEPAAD
T3 sequence (O95136 whole entry): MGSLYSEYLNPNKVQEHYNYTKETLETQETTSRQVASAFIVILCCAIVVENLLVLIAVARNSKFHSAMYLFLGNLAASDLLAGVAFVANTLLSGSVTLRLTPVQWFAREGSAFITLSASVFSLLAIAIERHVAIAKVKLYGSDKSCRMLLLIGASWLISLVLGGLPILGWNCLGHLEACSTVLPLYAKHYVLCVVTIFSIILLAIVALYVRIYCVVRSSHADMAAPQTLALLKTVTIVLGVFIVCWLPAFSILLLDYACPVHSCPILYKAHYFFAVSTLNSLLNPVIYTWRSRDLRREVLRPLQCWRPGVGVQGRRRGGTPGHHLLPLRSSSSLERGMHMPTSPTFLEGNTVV
Chain of human serum albumin (HSA) (P02768 25-609): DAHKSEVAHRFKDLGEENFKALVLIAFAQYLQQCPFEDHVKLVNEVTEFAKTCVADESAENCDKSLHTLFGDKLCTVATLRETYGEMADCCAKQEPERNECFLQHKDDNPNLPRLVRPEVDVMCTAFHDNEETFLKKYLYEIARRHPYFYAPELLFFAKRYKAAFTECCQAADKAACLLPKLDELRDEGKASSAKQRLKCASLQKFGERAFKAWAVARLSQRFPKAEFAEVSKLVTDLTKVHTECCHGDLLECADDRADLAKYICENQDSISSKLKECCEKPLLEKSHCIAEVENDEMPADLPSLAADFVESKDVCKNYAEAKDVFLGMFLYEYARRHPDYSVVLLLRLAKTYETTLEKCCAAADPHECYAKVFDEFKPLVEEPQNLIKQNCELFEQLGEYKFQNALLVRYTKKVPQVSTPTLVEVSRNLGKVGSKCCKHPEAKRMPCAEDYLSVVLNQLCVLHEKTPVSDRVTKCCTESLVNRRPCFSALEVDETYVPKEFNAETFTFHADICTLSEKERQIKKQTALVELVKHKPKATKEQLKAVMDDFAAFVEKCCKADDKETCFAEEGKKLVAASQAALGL

| SMILES | EC50 (S1P5) | Efficacy (%) (S1P5) | fraction unbound [1] | EC50 (S1P3) | EC50 (S1P2) | EC50 (S1P1) |
| --- | --- | --- | --- | --- | --- | --- |
| Cc1cc(F)cc(C)c1Nc1cccc(OC(C)C)c1C(N)=O [Compound 7a, 6-[(4′-Fluoro-2′,6′-dimethylphenyl)amino]-2-isopropoxybenzamide] | 419 nM | 105% | 0.01 |  |  |  |
| COc1cccc(Nc2c(C)cc(F)cc2C)c1C(N)=O [Compound 7b, 6-[(4′-Fluoro-2′,6′-dimethylphenyl)amino]-2-methoxybenzamide] | 39.8 nM | 108% | 0.01 | > 10000 nM | > 10000 nM | > 10000 nM |
| Cc1cc(F)cc(C)c1Nc1cccc(OCC(C)C)c1C(N)=O [Compound 7c, 6-[(4′-Fluoro-2′,6′-dimethylphenyl)amino]-2-isobutoxybenzamide] | 180 nM | 137% |  |  |  |  |
| CCCCOc1cccc(Nc2c(C)cc(F)cc2C)c1C(N)=O [Compound 7d, 2-n-Butoxy-6-[(4′-fluoro-2′,6′-dimethylphenyl)amino]benzamide] | 234 nM | 140% |  |  |  |  |
| Cc1cc(F)cc(C)c1Nc1cccc(OCCC(C)C)c1C(N)=O [Compound 7e, 6-[(4′-Fluoro-2′,6′-dimethylphenyl)amino]-2-(3′′-methyl-n-butoxy)benzamide] | 49 nM | 102% |  |  |  |  |
| C=CCOc1cccc(Nc2c(C)cc(F)cc2C)c1C(N)=O [Compound 7f, 2-(Allyloxy)-6-[(4′-fluoro-2′,6′-dimethylphenyl)amino]benzamide] | 6.66 nM | 164% |  | 27.6 nM | > 10000 nM | 25.6 nM |
| COc1c(C)ccc(Nc2c(C)cc(F)cc2C)c1C(N)=O [Compound 7g, 6-[(4′-Fluoro-2′,6′-dimethylphenyl)amino]-2-methoxy-3-methylbenzamide] | 22.3 nM | 183% | 0.01 | 2030 nM | > 10000 nM | 104 nM |
| Cc1cc(F)cc(C)c1Nc1ccc(C)c(OCC(C)C)c1C(N)=O [Compound 7h, 6-[(4′-Fluoro-2′,6′-dimethylphenyl)amino]-2-isobutoxy-3-methylbenzamide] | 2240 nM | 154% |  |  |  |  |
| COc1c(-c2ccc(F)cc2)ccc(Nc2c(C)cc(C)cc2C)c1C(N)=O [Compound 8a, 3-(4′′-Fluorophenyl)-6-(mesitylamino)-2-methoxybenzamide] | 72.3 nM | 129% |  |  |  |  |
| COc1c(-c2ccccc2F)ccc(Nc2c(C)cc(C)cc2C)c1C(N)=O [Compound 8b, 3-(2′′-Fluorophenyl)-6-(mesitylamino)-2-methoxybenzamide] | 954 nM | 136% |  |  |  |  |
| COc1ccc(-c2ccc(Nc3c(C)cc(C)cc3C)c(C(N)=O)c2OC)c(F)c1 [Compound 8c, 3-(2′′-Fluoro-4′′-methoxyphenyl)-6-(mesitylamino)-2-methoxybenzamide] | 29.8 nM | 120% |  | > 10000 nM | > 10000 nM | 76 nM |
| COc1ccc(F)c(-c2ccc(Nc3c(C)cc(C)cc3C)c(C(N)=O)c2OC)c1 [Compound 8d, 3-(2′′-Fluoro-5′′-methoxyphenyl)-6-(mesitylamino)-2-methoxybenzamide] | 612 nM | 142% |  |  |  |  |
| COc1c(-c2cccnc2F)ccc(Nc2c(C)cc(C)cc2C)c1C(N)=O [Compound 8e, 3-(2′′-Fluoropyridin-3′′-yl)-6-(mesitylamino)-2-methoxybenzamide] | 23.4 nM | 175% | 0.01 | 172 nM | > 10000 nM | 0.336 nM |
| CCCCCCCCCCCCC/C=C/[C@@H](O)[C@@H](N)COP(=O)(O)O [S1P (1), sphingosine-1-phosphate] |  | 100% |  | 42.6 nM |  |  |

Reference: PMC11729640, “Synthesis and evaluation of 6-arylaminobenzamides as positron emission tomography imaging ligands for the sphingosine-1-phosphate-5 receptor” (RSC Medicinal Chemistry, 2025)
